The test system of this test is Silverleaf Whitefly (Bemisia argentifolii). Put plainly: Insecticidal test against silverleaf whitefly on cabbage seedlings (spray). To be noted: spray on infested cabbage seedlings, total of adults and larvae, 9 days after treatment. The format is in vivo. The source says: Insecticidal Test Against Silverleaf Whitefly (Bemisia argentifolii)
To each of an aqueous dilution in a designated concentration of an emulsifiable concentrate of Compound A (commercial name: Lano EC, manufactured by Sumitomo Chemical Co., Ltd.) and a flowable of Compound B (commercial name: Sanmite flowable, manufactured by Nissan Chemical Industries, Ltd.), and a mixture of the emulsifiable concentrate of Compound A in a designated concentration with the flowable of Compound B in a designated concentration, a spreading agent (Shin-Rino, manufactured by Nihon Nohyaku Co., Ltd.) was added to make the amount of the spreading agent to 1/3000 of volume to prepare a spray solution.
Cabbage seedlings planted in 3 ounces plastic cup were placed in a net cage containing many living silverleaf whiteflies for 24 hours, so that silverleaf whiteflies became parasitic on the cabbage seedlings. Each of the above-prepared test solutions was sprayed with a spray gun. The number of silverleaf whiteflies (i.e., the total number of adults and larvae) surviving on the cabbage seedlings was examined just before and after 9 days from the treatment.

Consider `CC(COc1ccc(Oc2ccccc2)cc1)Oc1ccccn1` (stereo not shown) [Compound A, 4-phenoxyphenyl 2-(2-pyridyloxy)propyl ether], for which, where the note is “50 ppm active ingredient”, the “Number of surviving insects after 9 days” value stood at 30.

For the compound `CC(C)(C)c1ccc(CSc2cnn(C(C)(C)C)c(=O)c2Cl)cc1` [Compound B, 2-tert-butyl-5-(4-tert-butylbenzylthio)-4-chloropyridazin-3(2H)-one], the “Number of surviving insects after 9 days” value is 155 (12.5 ppm active ingredient), 10 (50 ppm active ingredient) and 13 (100 ppm active ingredient).

For the origin of these results see patent US6905699B2, “Insecticides” (Sumitomo Chemical Company, Limited, priority 2000, dated 2005).
